Data on 24 compounds can be found in patent US20090275586A1, “HETEROCYCLIC INHIBITORS OF PDE4” (KALYPSYS, INC., priority 2006, published 2009).

Structures are written as SMILES.

In assay [1] the test system is PDE4. Briefly: PDE4 Cellular CNG Assay. The settings on record: Activity at 10 μM; HEK293 cells stably expressing the CNG channel. The assay is classed as cell-based. The text has this:
Compounds may be screened for functional potency in in vitro cellular assays for their ability to inhibit the activity of phosphodiesterase (PDE) enzymes. A commercial membrane potential assay, Molecular Device's membrane potential assay kit, was modified and utilized to measure the inhibitory activity of compounds on PDE isoforms in living cells. The cellular assay utilizes genetically engineered cyclic nucleotide-gated (CNG) channels as cyclic-AMP (cAMP) sensors. On binding cAMP these ion channels open, allowing the flow of cations across the plasma membrane. CNG channel activity can be monitored by measuring Ca^2+ influx in cell populations. The influx of Ca causes a change in membrane potential that is measured by voltage sensitive dyes. PDE inhibitors prevent the degradation of cAMP that is generated by adenylyl cyclases that are activated upon stimulation of G protein-coupled receptors (GPCR) linked to the cAMP pathway. In brief, Molecular Device's membrane potential dye was added to HEK293 cells stably expressing the CNG channel and incubated for 2 hours at room temperature. Test compounds were then added to the cells and incubated for 15 minutes. A GPCR agonist was then added to the cells to stimulate the cAMP pathway and incubated for 45 minutes. Fluorescent measurements were then conducted with either the Molecular Devices Acquest or Analyst. PDE inhibitors will inhibit the degradation of cAMP and cause an increase in fluorescent signal. Roflumilast and Rolipram are the positive controls used in the assay.

Assay [2] deals with T1, PDE4B (Homo sapiens, UniProt Q07343).
T1 construct: hexa-histidine (His6) (N); made in house
Briefly: PDE4 IMAP Assay. The settings on record: 2 h; Activity at 10 μM; catalytic domain of PDE4B; read-out: PDE IMAP Assay. The format is biochemical. The text has this: Compounds may be screened for functional potency in in vitro biochemical assays for their ability to inhibit the activity of phosphodiesterase (PDE) enzymes. A commercial PDE assay, Molecular Device's PDE IMAP assay, was modified and utilized to measure the inhibitory activity of compounds on PDE isoforms. The IMAP technology is based on the high affinity binding of phosphate by immobilized metal (MIII) coordination complexes on nanoparticles. This IMAP “binding reagent” complexes with phosphate groups on the nucleotide monophosphates generated in the reaction. Such binding causes a change in the rate of the molecular motion of the nucleotide, and results in an increase in the fluorescence polarization value observed for the fluorescent label attached to the substrate. PDE inhibitors prevent the generation of nucleotide monophosphates and the subsequent increase in polarization value observed for the fluorescent label attached to the substrate. The catalytic domain of PDE4B was fused to an amino-terminus hex-histadine affinity tag and purified. PDE4B enzyme was incubated with compounds for 10 minutes. Fluorescently labeled cyclic AMP substrates were then added to the PDE enzyme mix and incubated for 2 hours at room temperature. IMAP binding reagent was then added to the enzyme mix, incubated for 10-30 minutes and fluorescent polarization of the fluorescently labeled substrate was read either with the Perkin Elmer Viewlux or Molecular Devices Acquest or Analyst. Roflumilast and Rolipram are the positive controls used in the assay.

T1 sequence (Q07343 330-659 limits assumed, species assumed): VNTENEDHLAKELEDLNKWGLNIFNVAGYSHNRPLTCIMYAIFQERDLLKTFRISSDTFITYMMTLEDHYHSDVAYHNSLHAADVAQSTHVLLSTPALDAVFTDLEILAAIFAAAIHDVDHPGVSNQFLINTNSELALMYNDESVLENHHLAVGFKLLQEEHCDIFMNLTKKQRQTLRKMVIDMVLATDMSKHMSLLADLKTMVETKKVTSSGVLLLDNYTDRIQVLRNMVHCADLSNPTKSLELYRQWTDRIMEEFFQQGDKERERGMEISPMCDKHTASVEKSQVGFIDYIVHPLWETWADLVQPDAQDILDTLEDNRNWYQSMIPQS

Consider `NC(=O)CSc1nc2sc3c(c2c(=O)n1C1CCCC1)CCCC3` [Example 1, 2-(3-Cyclopentyl-4-oxo-3,4,5,6,7,8-hexahydro-benzo[4]thieno[2,3-d]pyrimidin-2-ylsulfanyl)-acetamide], for which the “Cellular CNG Assay” value in assay [1] is given as “+ (+indicates Activity ≧ 50% at 10 μM)”. In addition, the inhibition at 10 µM in assay [2] was not below 50%.

With `CCNc1nc(NCC)n2c(SCc3nc4ccccc4c(=O)[nH]3)nnc2n1` [Example 2, 2-((5,7-Bis(ethylamino)-[1,2,4]triazolo[4,3-a][1,3,5]-triazin-3-ylthio)methyl)quinazolin-4(3H)-one], the “Cellular CNG Assay” value in assay [1] is “+ (+indicates Activity ≧ 50% at 10 μM)”. Further, in assay [2], the inhibition at 10 µM is not below 50%.

Turning to `COc1ccc(CN(Cc2ccncc2)C(=O)c2ccc3[nH]c(C)c(C)c3c2)cc1OC` [Example 3, N-(3,4-dimethoxybenzyl)-2,3-dimethyl-N-(pyridin-4-ylmethyl)-1H-indole-5-carboxamide], in assay [1], the “Cellular CNG Assay” value was “+ (+indicates Activity ≧ 50% at 10 μM)”. Further, in assay [2], the inhibition at 10 µM is not below 50%.

In the case of `COc1ccc(CN(C(=O)c2cccc3ccccc23)C2CCCC2)cc1OC(C)C` [Example 4, N-cyclopentyl-N-(3-isopropoxy-4-methoxybenzyl)-1-naphthamide], in assay [1], the “Cellular CNG Assay” value is “+ (+indicates Activity ≧ 50% at 10 μM)”. In assay [2], the inhibition at 10 µM is not below 50%.

As to `COc1ccc(CN(C)C(=O)c2cnn(-c3nccc(-c4cccs4)n3)c2C)cc1OC` [Example 5, N-(3,4-dimethoxybenzyl)-N,5-dimethyl-1-(4-(thiophen-2-yl)pyrimidin-2-yl)-1H-pyrazole-4-carboxamide], the “Cellular CNG Assay” value in assay [1] is “+ (+indicates Activity ≧ 50% at 10 μM)”. In assay [2], the inhibition at 10 µM is not below 50%.

Take `CCc1cccc(C)c1Nc1cc(NCCc2ccc(OC)c(OC)c2)ncn1` [Example 6, N4-(3,4-dimethoxyphenethyl)-N6-(2-ethyl-6-methylphenyl)pyrimidine-4,6-diamine]: the “Cellular CNG Assay” value in assay [1] is “+ (+indicates Activity ≧ 50% at 10 μM)”. Moreover, in assay [2], the inhibition at 10 µM was not below 50%.

With `Cc1ccc(S(=O)(=O)c2nnn3c2nc(NC(C)C)c2sccc23)cc1` [Example 7, N-isopropyl-3-tosylthieno[2,3-e][1,2,3]triazolo[1,5-a]pyrimidin-5-amine], the “Cellular CNG Assay” value in assay [1] was “− (−indicates Activity < 50% at 10 μM)”. Besides, the inhibition at 10 µM in assay [2] is not below 50%.

Take `CC(C)c1nc2sc3c(NCCCO)ncnc3c2c2c1COC(C)(C)C2` [Example 8, 3-(5-Isopropyl-2,2-dimethyl-1,4-dihydro-2H-3-oxa-7-thia-6,9,11-triazabenzo[c]fluoren-8-ylamino)-propan-1-ol]: the “Cellular CNG Assay” value in assay [1] is reported as “+ (+indicates Activity ≧ 50% at 10 μM)”. The inhibition at 10 µM in assay [2] was not below 50%.

On to `N#Cc1sc2nc(C3CC3)cc(-c3ccc(F)cc3)c2c1N` [Example 9, 3-Amino-6-cyclopropyl-4-(4-fluorophenyl)thieno[2,3-b]pyridine-2-carbonitrile], for which the “Cellular CNG Assay” value in assay [1] is “+ (+indicates Activity ≧ 50% at 10 μM)”. In addition, the inhibition at 10 µM in assay [2] is not below 50%.

Consider `COc1ccc(S(=O)(=O)N2CC(C)(C)Oc3ccc(NC(=O)c4cccnc4SC)cc32)cc1OC` [Example 10, N-(4-(3,4-dimethoxyphenylsulfonyl)-2,2-dimethyl-3,4-dihydro-2H-benzo[b][1,4]oxazin-6-yl)-2-(methylthio)nicotinamide], for which, in assay [1], the “Cellular CNG Assay” value is “+ (+indicates Activity ≧ 50% at 10 μM)”. In assay [2], the inhibition at 10 µM was not below 50%.

As for `COc1ccc(S(=O)(=O)N2CC(C)(C)Oc3ccc(NC(=O)c4ccccc4OC)cc32)cc1OC` [Example 11, N-(4-(3,4-dimethoxyphenylsulfonyl)-2,2-dimethyl-3,4-dihydro-2H-benzo[b][1,4]oxazin-6-yl)-2-methoxybenzamide], the “Cellular CNG Assay” value in assay [1] was “+ (+indicates Activity ≧ 50% at 10 μM)”. For the same compound, the inhibition at 10 µM in assay [2] is not below 50%.

For the compound `COc1ccc(NC(=O)c2ccccc2C(F)(F)F)cc1OC1CCCC1` [Example 12, N-(3-(cyclopentyloxy)-4-methoxyphenyl)-2-(trifluoromethyl)benzamide], the “Cellular CNG Assay” value in assay [1] was “+ (+indicates Activity ≧ 50% at 10 μM)”. Besides, in assay [2], the inhibition at 10 µM was not below 50%.

`CSc1nc(NC2CCCCC2)c2sccc2n1` [Example 13, N-cyclohexyl-2-(methylthio)thieno[3,2-d]pyrimidin-4-amine]: in assay [1], the “Cellular CNG Assay” value is reported as “+ (+indicates Activity ≧ 50% at 10 μM)”. Moreover, in assay [2], the inhibition at 10 µM is not below 50%.

In the case of `CCOc1ccccc1C(=O)Nc1c2c(nn1-c1cccc(Cl)c1)CS(=O)(=O)C2` [Example 14], the “Cellular CNG Assay” value in assay [1] is “− (−indicates Activity < 50% at 10 μM)”. In assay [2], the inhibition at 10 µM was not below 50%.

In the case of `CC(C)n1c(=O)c(=O)n(Cc2cccc(C(F)(F)F)c2)c2cc(S(C)(=O)=O)ccc21` [Example 15, 1-Isopropyl-6-(methylsulfonyl)-4-(3-(trifluoromethyl)benzyl)quinoxaline-2,3(1H,4H)-dione], the “Cellular CNG Assay” value in assay [1] is given as “+ (+indicates Activity ≧ 50% at 10 μM)”. For the same compound, the inhibition at 10 µM in assay [2] was not below 50%.

As to `COC(=O)c1ccc(Cn2c(=O)c(=O)n(C(C)C)c3ccc(C(F)(F)F)cc32)cc1` [Example 16, Methyl 4-((4-isopropyl-2,3-dioxo-7-(trifluoromethyl)-3,4-dihydroquinoxalin-1(2H)-yl)methyl)benzoate], in assay [1], the “Cellular CNG Assay” value is on record as “+ (+indicates Activity ≧ 50% at 10 μM)”. In assay [2], the inhibition at 10 µM is not below 50%.

Take `CCOC(=O)N1CCN(C(=O)c2cnn3c(C(F)(F)F)cc(-c4ccc(OC)c(OC)c4)nc23)CC1` [Example 17, Ethyl 4-(5-(3,4-dimethoxyphenyl)-7-(trifluoromethyl)pyrazolo[1,5-a]pyrimidine-3-carbonyl)piperazine-1-carboxylate]: in assay [1], the “Cellular CNG Assay” value was “+ (+indicates Activity ≧ 50% at 10 μM)”. Further, the inhibition at 10 µM in assay [2] was not below 50%.

For `COc1ccc(-c2cc(C(F)(F)F)n3ncc(C(=O)Nc4cccc(CCC#N)c4)c3n2)cc1OC` [Example 18, N-(3-(2-cyanoethyl)phenyl)-5-(3,4-dimethoxyphenyl)-7-(trifluoromethyl)pyrazolo[1,5-a]pyrimidine-3-carboxamide], the “Cellular CNG Assay” value in assay [1] is given as “+ (+indicates Activity ≧ 50% at 10 μM)”. For the same compound, in assay [2], the inhibition at 10 µM was not below 50%.

With `O=C(c1cccc(N2CCNC2=O)c1)N(CCC1=CCCCC1)Cc1cc2cc3c(cc2nc1N1CCOCC1)OCO3` [Example 19, N-(2-cyclohexenylethyl)-N-((6-morpholino-[1,3]dioxolo[4,5-g]quinolin-7-yl)methyl)-3-(2-oxoimidazolidin-1-yl)benzamide], in assay [1], the “Cellular CNG Assay” value is “+ (+indicates Activity ≧ 50% at 10 μM)”. In addition, in assay [2], the inhibition at 10 µM was not below 50%.

Regarding `CCOc1ncccc1C(=O)Nc1ccc(S(=O)(=O)Nc2nccs2)cc1` [Example 20, 2-Ethoxy-N-(4-(N-thiazol-2-ylsulfamoyl)phenyl)nicotinamide], the “Cellular CNG Assay” value in assay [1] is “+ (+indicates Activity ≧ 50% at 10 μM)”. In addition, in assay [2], the inhibition at 10 µM was not below 50%.

Regarding `O=c1n(Cc2ccncc2)nc2c3ccccc3nc(C3CC3)n12` [Example 21, 5-Cyclopropyl-2-(pyridin-4-ylmethyl)-[1,2,4]triazolo[4,3-c]quinazolin-3(2H)-one], the “Cellular CNG Assay” value in assay [1] is reported as “+ (+indicates Activity ≧ 50% at 10 μM)”. For the same compound, in assay [2], the inhibition at 10 µM is not below 50%.

Consider `COc1ccc(-c2cnnn2-c2ccc(NC(=O)c3c(F)cccc3F)cc2)cc1OC` [Example 22, N-(4-(5-(3,4-dimethoxyphenyl)-1H-1,2,3-triazol-1-yl)phenyl)-2,6-difluorobenzamide], for which, in assay [1], the “Cellular CNG Assay” value is reported as “+ (+indicates Activity ≧ 50% at 10 μM)”. In addition, in assay [2], the inhibition at 10 µM is not below 50%.

As for `COc1ccc(-c2cnnn2-c2ccc(NC(=O)c3ccc4c(c3)OCO4)cc2)cc1OC` [Example 23, N-(4-(5-(3,4-dimethoxyphenyl)-1H-1,2,3-triazol-1-yl)phenyl)benzo[d][1,3]dioxole-5-carboxamide], the “Cellular CNG Assay” value in assay [1] is listed as “+ (+indicates Activity ≧ 50% at 10 μM)”. Besides, the inhibition at 10 µM in assay [2] was not below 50%.

For `COc1ccc(-c2cn3ccnc3c(NCc3ccccc3)n2)cc1OC` [Example 24, N-benzyl-6-(3,4-dimethoxyphenyl)imidazo[1,2-a]pyrazin-8-amine], the inhibition at 10 µM in assay [2] was not below 50%.
